Laboratory results reported in patent publication US20230002359A1, “PESTICIDALLY ACTIVE FUSED BICYCLIC HETEROAROMATIC COMPOUNDS” (priority 2019, published 2023).

Columns and labels:
Format in all cases: in vivo
[1] = tested on: Euschistus heros (Neotropical Brown Stink Bug); assay: Example B2: Euschistus heros (neotropical brown stink bug), soybean leaves sprayed, N2 nymphs; settings: 120 h, application rate of 200 ppm, 5 days after infestation, N2 nymphs, read-out: control in at least one of the two categories (mortality or growth inhibition)
Description: Soybean leaves on agar in 24-well microtiter plates were sprayed with aqueous test solutions prepared from 10′000 ppm DMSO stock solutions. After drying the leaves were infested with N2 nymphs. The samples were assessed for mortality and growth inhibition in comparison to untreated samples 5 days after infestation.

[2] = tested on: Chilo suppressalis (Striped Rice Stemborer); assay: Example B3: Chilo suppressalis (striped rice stemborer), artificial diet, L2 larvae; settings: 144 h, application rate of 200 ppm, 6 days after infestation, L2 larvae, read-out: control in at least one of the three categories (mortality, anti-feedant effect, or growth inhibition)
In short: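 Artificial diet treated with aqueous dilutions of DMSO stocks (10'000 ppm stock), dried, then infested with 6-8 L2 larvae per well. Mortality, anti-feeding and growth inhibition scored against untreated samples 6 days after infestation. Control counted when any category exceeds untreated.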

[3] = tested on: Diabrotica Balteata (Corn Root Worm); assay: Example B1: Diabrotica balteata (corn root worm), maize sprouts sprayed, L2 larvae; settings: 96 h, application rate of 200 ppm, 4 days after infestation, L2 larvae, read-out: control in at least one of the two categories (mortality or growth inhibition)
In short: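 Larvae at L2 stage, 6 to 10 per well, feed on dried, spray-treated maize sprouts set on agar. Evaluation after 4 days compares mortality and growth inhibition with untreated samples.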

[4] = tested on: Plutella xylostella (Diamond Back Moth); assay: Example B4: Plutella xylostella (diamond back moth), artificial diet, eggs, 24-well; settings: 192 h, application rate of 200 ppm, 8 days after infestation, eggs, read-out: control in at least one of the two categories (mortality or growth inhibition)
Description: 24-well microtiter plates with artificial diet were treated with aqueous test solutions prepared from 10′000 ppm DMSO stock solutions by pipetting. After drying, Plutella eggs were pipetted through a plastic stencil onto a gel blotting paper and the plate was closed with it. The samples were assessed for mortality and growth inhibition in comparison to untreated samples 8 days after infestation.

[5] = tested on: Spodoptera littoralis (Egyptian Cotton Leaf Worm); assay: Example B7: Spodoptera littoralis (Egyptian cotton leaf worm), cotton leaf discs sprayed, L1 larvae; settings: foliar, 72 h, application rate of 200 ppm, 3 days after infestation, L1 larvae, read-out: control in at least one of the three categories (mortality, anti-feedant effect, or growth inhibition)
In short: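 Cotton leaf discs on agar were sprayed with aqueous test solutions made from 10′000 ppm DMSO stocks, dried, then infested with five L1 larvae. Mortality, anti-feeding effect and growth inhibition were scored against untreated discs 3 days after infestation; control means any category exceeds untreated.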

[6] = tested on: Myzus persicae (Green Peach Aphid); assay: Example B6: Myzus persicae (green peach aphid) intrinsic activity, sucrose solution; settings: 120 h, test rate of 12 ppm, 5 days after infestation, intrinsic activity, read-out: mortality
Description: Test compounds prepared from 10′000 ppm DMSO stock solutions were applied by pipette into 24-well microtiter plates and mixed with sucrose solution. The plates were closed with a stretched Parafilm. A plastic stencil with 24 holes was placed onto the plate and infested pea seedlings were placed directly on the Parafilm. The infested plate was closed with a gel blotting paper and another plastic stencil and then turned upside down. The samples were assessed for mortality 5 days after infestation.

Cc1cnc(-c2ccc(C#N)cn2)c([C@H](C)N(C)c2ncnc3c(C(F)(F)F)cc(C(F)(F)F)cc23)n1 [P.175, 6-[3-[(1S)-1-[[6,8-bis(trifluoromethyl)quina-zolin-4-yl]-methyl-amino]ethyl]-5-methyl-pyraizn-2-yl]pyridine-3-carbonitrile]
≥ 80%: percent control (mortality or growth inhibition) at 200 ppm [1] | percent control (mortality, anti-feedant effect or growth inhibition) at 200 ppm [2] | percent control (mortality or growth inhibition) at 200 ppm [3] | percent control (mortality or growth inhibition) at 200 ppm [4]

CC(c1ncnn1-c1ncc(Br)cn1)N(C)c1ncnc2c(C(F)(F)F)cc(C(F)(F)F)cc12 (stereo not shown) [P.89, N-[1-[2-(5-bromopyrimidin-2-yl)-1,2,4-triazol-3-yl]ethyl]-N-methyl-6,8-bis(trifluoromethyl)quina-zolin-4-amine]
≥ 80%: percent control (mortality or growth inhibition) at 200 ppm [1] | percent control (mortality, anti-feedant effect or growth inhibition) at 200 ppm [2] | percent control (mortality or growth inhibition) at 200 ppm [3] | percent control (mortality or growth inhibition) at 200 ppm [4]

CC(Nc1ncnc2c(OC(F)F)cc(Br)cc12)c1nccnc1-c1ncccn1 (stereo not shown) [P.32, 6-bromo-8-(difluoromethoxy)-N-[1-(3-pyrimidin-2-ylpyrazin-2-yl)ethyl]quinazolin-4-amine]
≥ 80%: percent control (mortality, anti-feedant effect or growth inhibition) at 200 ppm [2] | percent control (mortality or growth inhibition) at 200 ppm [3] | percent control (mortality, anti-feedant effect or growth inhibition) at 200 ppm [5] | percent control (mortality or growth inhibition) at 200 ppm [4] | mortality at 12 ppm [6]

CC(Nc1ncnc2c(Br)cc(Cl)cc12)c1nccnc1-c1ncccn1 (stereo not shown) [P.183, 8-bromo-6-chloro-N-[1-(3-pyrimidin-2-ylpyrazin-2-yl)ethyl]quinazolin-4-amine]
≥ 80%: percent control (mortality, anti-feedant effect or growth inhibition) at 200 ppm [2] | percent control (mortality or growth inhibition) at 200 ppm [3] | percent control (mortality, anti-feedant effect or growth inhibition) at 200 ppm [5] | percent control (mortality or growth inhibition) at 200 ppm [4] | mortality at 12 ppm [6]

CC(c1nccnc1-c1ncccn1)N(C)c1ncnc2c(C(F)(F)F)cc(Br)cc12 (stereo not shown) [P.98, 6-bromo-N-methyl-N-[1-(3-pyrimidin-2-ylpyrazin-2-yl)ethyl]-8-(trifluoromethyl)quinazolin-4-amine]
≥ 80%: percent control (mortality, anti-feedant effect or growth inhibition) at 200 ppm [2] | percent control (mortality or growth inhibition) at 200 ppm [3] | percent control (mortality, anti-feedant effect or growth inhibition) at 200 ppm [5] | percent control (mortality or growth inhibition) at 200 ppm [4] | mortality at 12 ppm [6]

CC(Nc1ncnc2c(Cl)cc(C(F)(F)F)cc12)c1ncnn1-c1ncccn1 (stereo not shown) [P.43, 8-chloro-N-[1-(2-pyrimidin-2-yl-1,2,4-triazol-3-yl)ethyl]-6-(trifluoromethyl)quinazolin-4-amine]
≥ 80%: percent control (mortality or growth inhibition) at 200 ppm [1] | percent control (mortality, anti-feedant effect or growth inhibition) at 200 ppm [2] | percent control (mortality or growth inhibition) at 200 ppm [3] | percent control (mortality or growth inhibition) at 200 ppm [4]

COc1nc(N(CC2CC2)C(C)c2ncnn2-c2ncccn2)c2cc(C(F)(F)F)cc(Cl)c2n1 (stereo not shown) [P.36, 8-chloro-N-(cyclopropylmethyl)-2-methoxy-N-[1-(2-pyrimidin-2-yl-1,2,4-triazol-3-yl)ethyl]-6-(trifluoromethyl)quinazolin-4-amine]
≥ 80%: percent control (mortality or growth inhibition) at 200 ppm [1] | percent control (mortality or growth inhibition) at 200 ppm [3]

CC(Nc1ncnc2c(Br)cc(Cl)cc12)c1ncnn1-c1ncccn1 (stereo not shown) [P.171, 8-bromo-6-chloro-N-[1-(2-pyrimidin-2-yl-1,2,4-triazol-3-yl)ethyl]quinazolin-4-amine]
≥ 80%: percent control (mortality, anti-feedant effect or growth inhibition) at 200 ppm [2] | percent control (mortality or growth inhibition) at 200 ppm [3] | percent control (mortality, anti-feedant effect or growth inhibition) at 200 ppm [5] | percent control (mortality or growth inhibition) at 200 ppm [4] | mortality at 12 ppm [6]

CC(Nc1ncnc2c(Br)cc(OC(F)(F)F)cc12)c1ncnn1-c1ncccn1 (stereo not shown) [P.229, 8-bromo-N-[1-(2-pyrimidin-2-yl-1,2,4-triazol-3-yl)ethyl]-6-(trifluoromethoxy)quinazo-line-4-amine]
≥ 80%: percent control (mortality, anti-feedant effect or growth inhibition) at 200 ppm [2] | percent control (mortality or growth inhibition) at 200 ppm [3] | percent control (mortality, anti-feedant effect or growth inhibition) at 200 ppm [5] | percent control (mortality or growth inhibition) at 200 ppm [4] | mortality at 12 ppm [6]

CC(c1nccnc1-c1ncccn1)N(C)c1ncnc2c(C(F)(F)F)cc(Cl)cc12 (stereo not shown) [P.132, 6-chloro-N-methyl-N-[1-(3-pyrimidin-2-ylpyrazin-2-yl)ethyl]-8-(trifluoromethyl)quinazolin-4-amine]
≥ 80%: percent control (mortality, anti-feedant effect or growth inhibition) at 200 ppm [2] | percent control (mortality or growth inhibition) at 200 ppm [3] | percent control (mortality, anti-feedant effect or growth inhibition) at 200 ppm [5] | percent control (mortality or growth inhibition) at 200 ppm [4] | mortality at 12 ppm [6]

CC(Nc1ncnc2c(C(F)(F)F)cc(Br)cc12)c1nccnc1-c1ncccn1 (stereo not shown) [P.133, 6-bromo-N-[1-(3-pyrimidin-2-ylpyrazin-2-yl)ethyl]-8-(trifluoromethyl)quinazolin-4-amine]
≥ 80%: percent control (mortality, anti-feedant effect or growth inhibition) at 200 ppm [2] | percent control (mortality or growth inhibition) at 200 ppm [3] | percent control (mortality, anti-feedant effect or growth inhibition) at 200 ppm [5] | percent control (mortality or growth inhibition) at 200 ppm [4] | mortality at 12 ppm [6]

CC(c1nccnc1-n1nccn1)N(CC1CC1)c1ncnc2c(C(F)(F)F)cc(Br)cc12 (stereo not shown) [P.78, 6-bromo-N-(cyclopropylmethyl)-N-[1-[3-(triazol-2-yl)pyrazin-2-yl]ethyl]-8-(trifluoromethyl)quinazolin-4-amine]
≥ 80%: percent control (mortality or growth inhibition) at 200 ppm [1] | percent control (mortality, anti-feedant effect or growth inhibition) at 200 ppm [2] | percent control (mortality or growth inhibition) at 200 ppm [3] | percent control (mortality or growth inhibition) at 200 ppm [4]

CC(c1ncnn1-c1ccc(C#N)cn1)N(C)c1ncnc2c(OC(F)F)cc(Br)cc12 (stereo not shown) [P.230, 6-[5-[1-[[6-bromo-8-(difluoromethoxy)quinazo-lin-4-yl]-methyl-amino]ethyl]-1,2,4-triazol-1-yl]pyridine-3-carbonitrile]
≥ 80%: percent control (mortality, anti-feedant effect or growth inhibition) at 200 ppm [2] | percent control (mortality or growth inhibition) at 200 ppm [3] | percent control (mortality, anti-feedant effect or growth inhibition) at 200 ppm [5] | percent control (mortality or growth inhibition) at 200 ppm [4] | mortality at 12 ppm [6]

CC(Nc1nccc2c(C(F)(F)F)cc(C(F)(F)F)cc12)c1ncnn1-c1ncccn1 (stereo not shown) [P.83, N-[1-(2-pyrimidin-2-yl-1,2,4-triazol-3-yl)ethyl]-5,7-bis(trifluoromethyl)isoquinolin-1-amine]
≥ 80%: percent control (mortality or growth inhibition) at 200 ppm [1] | percent control (mortality, anti-feedant effect or growth inhibition) at 200 ppm [2] | percent control (mortality or growth inhibition) at 200 ppm [3] | percent control (mortality or growth inhibition) at 200 ppm [4]

CC(Nc1ncnc2c(C(F)(F)F)cc(Br)cc12)c1ncnn1-c1ncccn1 (stereo not shown) [P.44, 6-bromo-N-[1-(2-pyrimidin-2-yl-1,2,4-triazol-3-yl)ethyl]-8-(trifluoromethyl)quinazolin-4-amine]
≥ 80%: percent control (mortality, anti-feedant effect or growth inhibition) at 200 ppm [2] | percent control (mortality or growth inhibition) at 200 ppm [3] | percent control (mortality, anti-feedant effect or growth inhibition) at 200 ppm [5] | percent control (mortality or growth inhibition) at 200 ppm [4] | mortality at 12 ppm [6]

CC(c1nccnc1-n1nccn1)N(CC1CC1)c1ncnc2c(C(F)(F)F)cc(C(F)(F)F)cc12 (stereo not shown) [P.75, N-(cyclopropylmethyl)-N-[1-[3-(triazol-2-yl)pyrazin-2-yl]ethyl]-6,8-bis(trifluoromethyl)quina-zolin-4-amine]
≥ 80%: percent control (mortality or growth inhibition) at 200 ppm [1] | percent control (mortality, anti-feedant effect or growth inhibition) at 200 ppm [2] | percent control (mortality or growth inhibition) at 200 ppm [3] | percent control (mortality or growth inhibition) at 200 ppm [4]

CC(Nc1ncnc2c(OC(F)(F)F)cc(Br)cc12)c1nccnc1-c1ncccn1 (stereo not shown) [P.11, 6-bromo-N-[1-(3-pyrimidin-2-ylpyrazin-2-yl)ethyl]-8-(trifluoromethoxy)quina-zolin-4-amine]
≥ 80%: percent control (mortality, anti-feedant effect or growth inhibition) at 200 ppm [2] | percent control (mortality or growth inhibition) at 200 ppm [3] | percent control (mortality, anti-feedant effect or growth inhibition) at 200 ppm [5] | percent control (mortality or growth inhibition) at 200 ppm [4] | mortality at 12 ppm [6]
